Tests used:
Type in all cases: cell-based, human
[1] = system: HCT15 cells; test: 10-14 day Clonagenicity Assay (MTT), HCT15; conditions: for percentage survival relative to the missense, n = 1: independent experiment n = 1, dilution point of maximum toxicity; for percentage survival relative to the missense, n = 2: independent experiment n = 2, dilution point of maximum toxicity
How it was run: (§1)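 Extended-growth viability screen: siRNA transfected at 2 μg/ml into six serially diluted seed densities, quantified by MTT at 10-14 days. Hits needed significant loss versus missense (non-overlapping standard error bars) across two densities; maximum-toxicity point reported as mean % viability.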

[2] = system: A549 cells; test: 10-14 day Clonagenicity Assay (MTT), A549; conditions: for percentage survival relative to the missense, n = 1: independent experiment n = 1, dilution point of maximum toxicity; for percentage survival relative to the missense, n = 2: independent experiment n = 2, dilution point of maximum toxicity; for percentage survival relative to the missense, n = 3: independent experiment n = 3, dilution point of maximum toxicity
How it was run: as §1

[3] = system: SKOV3 cells; test: 10-14 day Clonagenicity Assay (MTT), SKOV3; conditions: for percentage survival relative to the missense, n = 1: independent experiment n = 1, dilution point of maximum toxicity; for percentage survival relative to the missense, n = 2: independent experiment n = 2, dilution point of maximum toxicity; for percentage survival relative to the missense, n = 3: independent experiment n = 3, dilution point of maximum toxicity
How it was run: as §1

[4] = system: U251 cells; test: 10-14 day Clonagenicity Assay (MTT), U251; conditions: U251, clonagenicity assay, dilution point of maximum toxicity; for percentage survival relative to the missense, n = 1: independent experiment n = 1; for percentage survival relative to the missense, n = 2: independent experiment n = 2; for percentage survival relative to the missense, n = 3: independent experiment n = 3
Source text: (§2) The Clonagenicity Assay represents a Cell Viability Screen that allows assessment of a cytotoxic insult at a variety of seed densities of cancer cell lines over an extended period of logarithmic growth, such that the definitive effect of the test substance can be accurately quantified. In this instance, the ‘cytotoxic insult’ to be tested involves the transfection of siRNA Oligomers to knockdown the expression of novel target Kinases and GPCRs as outlined previously. Cell number is quantified 10-14 days post siRNA transfection by MTT conversion as described in detail in Example 6.
(§3) The Clonagenicity Assay is optimised for each cell line examined with respect to seed number. The seed number varies for each cell line and accounts for the differences in cell size, growth rate and sensitivity to transfection-induced toxicity for each cell line pursued. Cells lines given as models for this example include HCT15, MCF7, A549, SKOV3, DU145, U251, PC3, A498 and HeLa. The siRNA oligo to Survivin serves as a positive control for toxicity in this assay and the missense control oligomer acts as a negative control as described in detail in Examples 5 and 6. The c-Raf, BCL2 and PI3K siRNA oligomers serve as additional controls as previously mentioned. The Clonagenicity assay is performed as outlined below.
(§4) Cells are seeded into a 96-well plate as described below and allowed to adhere overnight at 37° C. in a humidified atmosphere containing 5% CO2 in air. Wells are seeded with an appropriate cell number (cell line dependent) in Column 1 of the 96 well plates and this cell suspension is diluted 1 in 2 across the 96 well plates from Column 1 through to 6 (represented on the x-axis in results). Cells are next transfected with siRNA Oligomers, at a concentration of 2 μg/ml, against the genes of interest. Transfections continue for 4 hrs after which the transfection solution is removed and cells are refed with fresh medium and allow to incubate overnight. An additional media change@24 hrs post transfection is made to minimise toxicity of the transfection reagent. Cells are subsequently incubated for a 10-14 Day period post transfection at a 37° C. incubation as described above. Medium is renewed weekly following which MTT quantification is performed as described in Example 5.
Note seed density decreases from 3.5 to 0.1×10^3 cells on the x-axis and the y-axis represents cell number as quantified by MTT conversion, 10-14 days post transfection. This decrease is substantially greater that with the apoptosis gene, Survivin. […] Note seed density decreases from 3.5 to 0.1×10^3 cells on the x-axis and the y-axis represents cell number as quantified by MTT conversion, 10-14 days post transfection.
(§5) To be considered cytotoxic, the siRNA Oligo against the gene target must induce a decreased viability in a cell line across at least 2 seed densities in the clonagenicity assay, such that a significant difference between the target gene and MS is observed i.e. no crossing of the Standard Error bars is detected. The average percentage viability, relative to missense, is recorded for the dilution point at which Maximum Toxicity is induced is recorded in Table 13.
(§6) Table 13 Clonagenicity Assay—This table gives the average percentage survival of the indicated cell lines relative to the missense in a clonagenicity assay, over 3 independent experiments. As an internal reference, the known survival gene ‘Survivin’, BCL2, c-Raf and PI3KR1 was also targeted by siRNA. When no Cytotoxic response is detected ‘-’ is recorded.

[5] = system: PC3 cells; test: 10-14 day Clonagenicity Assay (MTT), PC3; conditions: for percentage survival relative to the missense, n = 1: independent experiment n = 1, dilution point of maximum toxicity; for percentage survival relative to the missense, n = 2: independent experiment n = 2, dilution point of maximum toxicity; for percentage survival relative to the missense, n = 3: independent experiment n = 3, dilution point of maximum toxicity
Source text: as §2, §3, §4, §5, §6

[6] = system: A498 cells; test: 10-14 day Clonagenicity Assay (MTT), A498; conditions: for percentage survival relative to the missense, n = 1: independent experiment n = 1, dilution point of maximum toxicity; for percentage survival relative to the missense, n = 3: independent experiment n = 3, dilution point of maximum toxicity
How it was run: as §1

[7] = system: PC3 cells; test: Cell Migration Assay (Chemicon ECM550, Boyden Chamber); conditions: 48 hours post siRNA transfection, 24-hour migration, compared to missense and UPA controls
Description: Cells are seeded into a 6-well plate and allowed to adhere overnight at 37° C. in a humidified atmosphere containing 5% CO2 in air. Cells are next transfected with siRNA oligonucleotides, at a concentration of 2 μg/ml, against the genes of interest, as described in detail in Example 5. Transfections are continued for 4 hrs after which the transfection solution is removed and cells are refed with fresh medium and allowed incubate overnight. Transfected cells are next harvested for seeding into migration assay as described below.
The Chemicon Cell Migration Assay (ECM550) is used to quantify the number of PC3 cells that successfully migrate across a Boyden Chamber towards a chemoattractant over a 24-hour incubation period. Assessment of PC3 cell migration is performed routinely 48 hours post siRNA Transfection. The effect of reducing the expression of genes of interest is compared to that of a missense control oligomer and to the influence of UPA knockdown, which is reported in the literature to decrease PC3 cell migration. The Migration Assay is performed as per manufacturers inductions. Results are illustrated in FIGS. 39 to 41.
Cells were plated and transfected with the indicated siRNA as described above. Migration of PC3 cells was tracked using a fluorescent dye. Consequently increases in fluorescent units correlates positively with increased migration.

Row | Substance | percentage survival relative to the missense, n = 1 [1] [%] | percentage survival relative to the missense, n = 2 [1] [%] | percentage survival relative to the missense, n = 1 [2] [%] | percentage survival relative to the missense, n = 2 [2] [%] | percentage survival relative to the missense, n = 3 [2] [%] | percentage survival relative to the missense, n = 1 [3] [%] | percentage survival relative to the missense, n = 2 [3] [%] | percentage survival relative to the missense, n = 3 [3] [%] | percentage survival relative to the missense, n = 1 [4] [%] | percentage survival relative to the missense, n = 1 [5] [%] | percentage survival relative to the missense, n = 2 [5] [%] | percentage survival relative to the missense, n = 3 [5] [%] | percentage survival relative to the missense, n = 1 [6] [%] | percentage survival relative to the missense, n = 3 [6] [%] | migration of PC3 cells [7] | percentage survival relative to the missense, n = 2 [4] [%] | percentage survival relative to the missense, n = 3 [4] [%]
1 | siRNA EKI: siRNA duplex, sense GCACUGGAUCCAAAGCAUGtt, antisense CAUGCUUUGGAUCCAGUGCtt; same in Tables 9 and 11 (sense GCACUGGAUCCAAAGCAUGTT; antisense CAUGCUUUGGAUCCAGUGCTT; chemistry not given here) | 63.5 | 60.6 | 27.1 | 30.9 | 49.1 | 10.5 | 19.8 | 20.6 | 62.3 | 62 | 40.4 | 39.7 | 21.6 | 15.4 | – | – | –
2 | siRNA GRAF: siRNA duplex, sense GCGGAAGUUUGCAGAUUCCtt, antisense GGAAUCUGCAAACUUCCGCtt; same in Tables 9 and 11 (sense GCGGAAGUUUGCAGAUUCCTT; antisense GGAAUCUGCAAACUUCCGCTT; chemistry not given here) | – | – | – | – | – | 82.2 | – | – | – | – | – | – | 92.6 | 49.9 | – | – | –
3 | siRNA MPSK1: sense GGGUUAUGCCCACAGAGACtt, antisense GUCUCUGUGGGCAUAACCCtt (sense GGGUUAUGCCCACAGAGACTT; antisense GUCUCUGUGGGCAUAACCCTT; chemistry not given here) | 68.3 | – | – | – | – | 57.2 | – | – | – | – | – | – | 44.7 | 20.9 | inhibition of migration | – | –
4 | siRNA NTKL: siRNA duplex, sense UGUGGAGCUGAUGAAGCACtt, antisense GUGCUUCAUCAGCUCCACAtt; same in Tables 9 and 11 (sense UGUGGAGCUGAUGAAGCACTT; antisense GUGCUUCAUCAGCUCCACATT; chemistry not given here) | 59.5 | 55.3 | 18.9 | 45.3 | 28.1 | 6.2 | 18.8 | 14.9 | 9.5 | 11.6 | 45.7 | 14.4 | 12.3 | 7.2 | – | 20.9 | 17.1
5 | siRNA P14KB: sense GCUACGGAAGCUGAUCCUCtt, antisense GAGGAUCAGCUUCCGUAGCtt (sense GCUACGGAAGCUGAUCCUCTT; antisense GAGGAUCAGCUUCCGUAGCTT; chemistry not given here) | – | – | – | – | 63.4 | 12.3 | 56 | 44.8 | 12.3 | – | – | 8.4 | 19.3 | 15.1 | no influence on the migration | 65 | 28.3
6 | siRNA PCTAIRE: sense GUCAGUGCCCACAAAGACUtt, antisense AGUCUUUGUGGGCACUGACtt (sense GUCAGUGCCCACAAAGACUTT; antisense AGUCUUUGUGGGCACUGACTT; chemistry not given here) | – | – | – | – | – | 68.6 | – | – | 24.2 | – | – | – | 24.9 | 48.4 | inhibition of migration | 42.7 | 1.6
7 | siRNA ROCK: siRNA duplex, sense UACAUGCCUGGUGGAGAUCtt, antisense GAUCUCCACCAGGCAUGUAtt; same in Tables 9 and 11 (sense UACAUGCCUGGUGGAGAUCTT; antisense GAUCUCCACCAGGCAUGUATT; chemistry not given here) | 61.9 | 34.6 | 16.3 | 28.4 | 16.8 | 11.7 | 30.4 | 40.7 | 13.8 | 50.4 | 32.3 | 22.8 | 14.3 | 8.3 | – | 58.2 | 19.8
8 | siRNA Survivin: positive control siRNA, sense GAACUGGCCCUUCUUGGAGtt, antisense CUCCAAGAAGGGCCAGUUCtt (sense GAACUGGCCCUUCUUGGAGTT; antisense CUCCAAGAAGGGCCAGUUCTT; chemistry not given here) [reference compound] | 71.3 | 44.5 | 28.5 | 62.4 | 67.3 | 43.9 | 90.8 | 85.7 | 45.9 | 39.2 | – | 83.6 | 35.9 | 75.9 | – | 64.6 | 76.4

— patent US20050019746A1, “Apoptosis-related kinase/GPCRs” (EiRx Therapeutics Limited, priority 2003, published 2005)
